Tests used:
KIF2C = molecular target: T1, KIF2C (Homo sapiens, UniProt Q99661); assay: In vitro validation: KIF2C kinesin activity, malachite green-based phosphate colorimetric assay; type: biochemical; conditions: for EC50: concentration that inhibits 50% of KIF2C activity
T1 construct: KIF2C (216-598 a.a.); 6xHis (C); made in house; host or cells: E. coli BL21 (DE3), pET-28a
Experimental: (§1) The in vitro validation was performed by measuring KIF2C kinesin activity using malachite green-based phosphate colorimetric assay (BioVision). […] The microtubules from porcine brain tubulin (Cytoskeleton) or purified from HEK293 cells in Free-style medium (293Fs) were dissolved in the BRB80 buffer (80 mM PIPES pH 6.8, 1 mM EGTA, 1 mM MgCl2, 1 mM GTP, 1 mM DTT, and 10% DMSO) at 37° C. for 2 hr. Phosphates released from kinesin-mediated ATP hydrolysis was measured by adding 30 μL of the phosphate colorimetric reagent (BioVision), incubated for 10 min, and then measured with absorbance at 650 nm. […] The cell validation was performed by measuring cytotoxicity in MDA-MB-231 cells. The cells were cultured in a 96-well plate at a confluence of 2000 cells/well with indicates compounds for specific days. When the time was up, the culture medium in the plate was aspirated and replaced with a prepared CellTiter-Glo reagent (Promega)/DMEM mixture (1:1 mix of CellTiter-Glo reagent and serum-supplemented DMEM). After incubation for 10 min, the luminescence was measured with an ELISA plate reader to determine the cell viability.
In vitro kinesin activity was measured using malachite green-based phosphate colorimetric assay (BioVision). […] The microtubules from porcine brain tubulin (Cytoskeleton) or purified from HEK293 cells in Free-style medium (293Fs) were dissolved in the BRB80 buffer (80 mM PIPES pH 6.8, 1 mM EGTA, 1 mM MgCl2, 1 mM GTP, 1 mM DTT, and 10% DMSO) at 37° C. for 2 hr. Phosphates released from kinesin-mediated ATP hydrolysis was measured by adding 30 μL of the phosphate colorimetric reagent (BioVision), incubated for 10 min, and then measured with absorbance at 650 nm.
Constructs of sN+M regions of KIF2C (216-598 a.a.), KIF2A (181-562 a.a.) and KIF2B (171-553 a.a.) with C-terminal 6×His tag were subcloned into pET-28a vector and expressed in BL21 (DE3) E. coli cells (Novartis) cultured in Luria-Bertani medium supplemented with 50 ug/mL kanamycin at 37° C. After induction with 0.8 mM IPTG for 18 hr at 20° C., the cells were pelleted by centrifugation at 6000 rpm for 30 min at 10° C. The collected pellets were resuspended in 30 mL of buffer A (20 mM Tris-HCl pH 7.5, 500 mM NaCl, 10 mM imidazole, 1% CHAPS, and 1 mM PMSF) and next subjected to a high-pressure homogenizer (EmulsiFlex-C3) for cell lysis. After removing the cell debris by centrifugation at 13000 rpm for 30 min at 10° C., the recombinant Kinesin-13 in the supernatant was purified using nickel affinity chromatography. Firstly, the supernatant was applied to the Ni-NTA column (GE Healthcare) pre-equilibrated with buffer A. Secondly, the column was washed with 10× column volumes of buffer A to remove the unwanted proteins. The washed column was then eluted with 10× column volumes of buffer containing increasing concentrations of imidazole (40, 100, 300, 1000 mM), and the majority of the recombinant Kinesin-13 protein was eventually obtained in a fraction of 300 mM imidazole. The fractions containing the recombinant Kinesin-13 were subsequently concentrated in the buffer B (20 mM Tris-HCl pH 7.5, 10 mM imidazole, 50 mM NaCl, 2 mM DTT) using an Amicon® Ultra filter (Millipore) and subjected to cation exchange column (Capto S, GE Healthcare) for further purification. The recombinant Kinesin-13 was then eluted in elution buffer (20 mM Tris-HCl pH 7.5 and 2 mM DTT) containing 400 mM of NaCl and stored at −80° C. for long-term storage.

MDA-MB-231 cells = assay: Cell validation: cytotoxicity in MDA-MB-231 cells (CellTiter-Glo); type: cell-based; conditions: for IC50: Homo sapiens; for IC50 / Cell validation (IC50): cytotoxicity in MDA-MB-231 cells
Experimental: as §1
The cancer cells were cultured in a 96-well plate at a confluence of 1000-2000 cells/well with indicated drugs for specific days. When the time was up, the culture medium in the plate was aspirated and replaced with a prepared CellTiter-Glo reagent/DMEM mixture (1:1 mix of CellTiter-Glo reagent and serum-supplemented DMEM). After incubation for 10 min, the luminescence (proportional to the number of living cells) was measured with an ELISA plate reader to determine the cell viability.

T1 sequence (Q99661 216-598): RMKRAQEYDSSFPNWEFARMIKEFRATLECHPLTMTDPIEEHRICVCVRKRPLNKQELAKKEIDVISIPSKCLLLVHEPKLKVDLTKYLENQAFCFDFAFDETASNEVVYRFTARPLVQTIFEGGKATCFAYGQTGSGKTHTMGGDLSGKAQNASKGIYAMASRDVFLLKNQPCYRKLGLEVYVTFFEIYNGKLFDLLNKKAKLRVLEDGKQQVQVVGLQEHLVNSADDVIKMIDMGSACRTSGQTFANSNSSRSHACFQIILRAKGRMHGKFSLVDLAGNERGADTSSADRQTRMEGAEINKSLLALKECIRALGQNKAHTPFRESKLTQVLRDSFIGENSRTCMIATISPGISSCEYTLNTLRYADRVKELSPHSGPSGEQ

EC50 (KIF2C) | Structure (SMILES) | IC50 (MDA-MB-231 cells) | cytotoxicity on MDA-MB-231 cells (in words) (MDA-MB-231 cells; 72 hr) | Cell validation (IC50) (MDA-MB-231 cells) | KIF2C activity in reaction containing nocodazole (in words) (KIF2C; 1 μM nocodazole)
> 100 µM | CC1=C(C(=O)OC(C)C)C(c2ccc(Cl)cc2)n2c(s/c(=C\c3ccc(F)cc3)c2=O)=N1 (centres unmarked) [2S0 (22), isopropyl (Z)-5-(4-chlorophenyl)-2-(4-fluorobenzylidene)-7-methyl-3-oxo-2,3-dihydro-5H-thiazolo[3,2-a]pyrimidine-6-carboxylate] | > 50 µM |  |  | 
> 100 µM | CCOC(=O)COc1ccc(/C=c2\sc3n(c2=O)C(c2ccc(Cl)cc2)C(C(=O)OC(C)C)=C(C)N=3)cc1 (centres unmarked) [4S0 (26), 1-methylethyl 5-(4-chlorophenyl)-2-[[4-(2-ethoxy-2-oxoethoxy)phenyl]methylene]-2,3-dihydro-7-methyl-3-oxo-5H-thiazolo[3,2-a]pyrimidine-6-carboxylate] | > 50 µM |  |  | 
> 100 µM | CC1=C(C(=O)OC(C)C)C(c2ccc(Cl)cc2)n2c(s/c(=C\c3ccc(OCC(N)=O)cc3)c2=O)=N1 (centres unmarked) [8S0 (15), isopropyl (Z)-2-(4-(2-amino-2-oxoethoxy)benzylidene)-5-(4-chlorophenyl)-7-methyl-3-oxo-2,3-dihydro-5H-thiazolo[3,2-a]pyrimidine-6-carboxylate] | > 50 µM |  |  | 
< 50 µM | CC1=C(C(=O)OC(C)C)C(c2ccc(F)cc2)n2c(s/c(=C\c3ccc(OCC(=O)O)cc3)c2=O)=N1 (centres unmarked) [9S0 (32), (4-(((2Z)-5-(4-fluorophenyl)-7-methyl-3-oxo-6-((propan-2-yloxy)carbonyl)-5H-[1,3]thiazolo[3,2-a]pyrimidin-2(3H)-ylidene)methyl)phenoxy)acetic acid] | > 50 µM |  |  | 
> 100 µM | CNC(=O)COc1ccc(/C=c2\sc3n(c2=O)C(c2ccc(F)cc2)C(C(=O)OC(C)C)=C(C)N=3)cc1 (centres unmarked) [10S0 (35), isopropyl (Z)-5-(4-fluorophenyl)-7-methyl-2-(4-(2-(methylamino)-2-oxoethoxy)benzylidene)-3-oxo-2,3-dihydro-5H-thiazolo[3,2-a]pyrimidine-6-carboxylate] | > 50 µM |  |  | 
> 100 µM | CC1=C(C(=O)OC(C)C)C(c2ccc(Cl)cc2)n2c(s/c(=C\c3ccc(OCC(=O)N4CCN(C(C)C)CC4)cc3)c2=O)=N1 (centres unmarked) [11S0 (16), isopropyl (Z)-5-(4-chlorophenyl)-2-(4-(2-(4-isopropylpiperazin-1-yl)-2-oxoethoxy)benzylidene)-7-methyl-3-oxo-2,3-dihydro-5H-thiazolo[3,2-a]pyrimidine-6-carboxylate] |  |  | + + | 
50 to 100 µM | COC(=O)C1=C(C)N=c2s/c(=C\c3ccc(OCC(=O)O)cc3)c(=O)n2C1c1ccc(Cl)cc1 (centres unmarked) [14S0 (78), (Z)-2-(4-((5-(4-chlorophenyl)-6-(methoxycarbonyl)-7-methyl-3-oxo-5H-thiazolo[3,2-a]pyrimidin-2(3H)-ylidene)methyl)phenoxy)acetic acid] | > 50 µM |  |  | 
> 100 µM | CC1=C(C(=O)OC(C)C)C(c2cccc(Cl)c2)n2c(s/c(=C\c3ccc(OCC(=O)O)cc3)c2=O)=N1 (centres unmarked) [15S0 (66), (Z)-2-(4-((5-(3-chlorophenyl)-6-(isopropoxycarbonyl)-7-methyl-3-oxo-5H-thiazolo[3,2-a]pyrimidin-2(3H)-ylidene)methyl)phenoxy)acetic acid] | > 50 µM |  |  | 
50 to 100 µM | CCN1CCN(C(=O)COc2ccc(/C=c3\sc4n(c3=O)C(c3cccc(Cl)c3)C(C(=O)OC(C)C)=C(C)N=4)cc2)CC1 (centres unmarked) [16S0 (67), isopropyl (Z)-5-(3-chlorophenyl)-2-(4-(2-(4-ethylpiperazin-1-yl)-2-oxoethoxy)benzylidene)-7-methyl-3-oxo-2,3-dihydro-5H-thiazolo[3,2-a]pyrimidine-6-carboxylate] |  |  | + + | 
> 100 µM | CC1=C(C(=O)OC(C)C)C(c2ccc(C)cc2)n2c(s/c(=C\c3ccc(OCC(=O)O)cc3)c2=O)=N1 (centres unmarked) [17S0 (50), (Z)-2-(4-((6-(isopropoxycarbonyl)-7-methyl-3-oxo-5-(p-tolyl)-5H-thiazolo[3,2-a]pyrimidin-2(3H)-ylidene)methyl)phenoxy)acetic acid] | > 50 µM |  |  | 
50 to 100 µM | CCN1CCN(C(=O)COc2ccc(/C=c3\sc4n(c3=O)C(c3ccc(C)cc3)C(C(=O)OC(C)C)=C(C)N=4)cc2)CC1 (centres unmarked) [18S0 (51), isopropyl (Z)-2-(4-(2-(4-ethylpiperazin-1-yl)-2-oxoethoxy)benzylidene)-7-methyl-3-oxo-5-(p-tolyl)-2,3-dihydro-5H-thiazolo[3,2-a]pyrimidine-6-carboxylate] |  |  | + + | 
< 50 µM | CC1=C(C(=O)OC(C)C)C(c2ccc(N(C)C)cc2)n2c(s/c(=C\c3ccc(OCC(=O)N4CCN(C)CC4)cc3)c2=O)=N1 (centres unmarked) [19S0 (56), isopropyl (Z)-5-(4-(dimethylamino)phenyl)-7-methyl-2-(4-(2-(4-methylpiperazin-1-yl)-2-oxoethoxy)benzylidene)-3-oxo-2,3-dihydro-5H-thiazolo[3,2-a]pyrimidine-6-carboxylate] |  |  | + + | 
 | CC1=C(C(=O)OC(C)C)C(c2ccc(Cl)cc2)n2c(s/c(=C\c3ccc(OCC(=O)N4CCC(N5CCN(C)CC5)CC4)cc3)c2=O)=N1.O=C(O)/C=C\C(=O)O (centres unmarked) [24S9 (135), isopropyl (Z)-5-(4-chlorophenyl)-7-methyl-2-(4-(2-(4-(4-methylpiperazin-1-yl)piperidin-1-yl)-2-oxoethoxy)benzylidene)-3-oxo-2,3-dihydro-5H-thiazolo[3,2-a]pyrimidine-6-carboxylate maleate] |  |  | + + + + | 
 | COC(=O)Nc1nc2ccc(C(=O)c3cccs3)cc2[nH]1 [nocodazole, reference compound] |  |  |  | largely reduced

Structure (SMILES) | EC50 (KIF2C) | IC50 (MDA-MB-231 cells) | cytotoxicity on MDA-MB-231 cells (in words) (MDA-MB-231 cells; 72 hr) | Cell validation (IC50) (MDA-MB-231 cells) | KIF2C activity in reaction containing nocodazole (in words) (KIF2C; 1 μM nocodazole)
COc1ccc(/C=c2\sc3n(c2=O)C(c2ccc(Cl)cc2)C(C(=O)OC(C)C)=C(C)N=3)cc1 (centres unmarked) [3S0 (23), isopropyl (Z)-5-(4-chlorophenyl)-2-(4-methoxybenzylidene)-7-methyl-3-oxo-2,3-dihydro-5H-thiazolo[3,2-a]pyrimidine-6-carboxylate] | > 100 µM | > 50 µM |  |  | 
CC1=C(C(=O)OC(C)C)C(c2ccc(Cl)cc2)n2c(s/c(=C\c3ccc(OCC(=O)N4CCN(C)CC4)cc3)c2=O)=N1 (centres unmarked) [6S0 (13), propan-2-yl (2Z)-5-(4-chlorophenyl)-7-methyl-2-(4-(2-(4-methylpiperazin-1-yl)-2-oxoethoxy)benzylidene)-3-oxo-2,3-dihydro-5H-[1,3]thiazolo[3,2-a]pyrimidine-6-carboxylate] | 50 to 100 µM |  | showed cytotoxicity | + + | 
CCOC(=O)C1=C(C)N=c2s/c(=C\c3ccc(OCC(=O)O)cc3)c(=O)n2C1c1ccc(Cl)cc1 (centres unmarked) [12S0 (79), (Z)-2-(4-((5-(4-chlorophenyl)-6-(ethoxycarbonyl)-7-methyl-3-oxo-5H-thiazolo[3,2-a]pyrimidin-2(3H)-ylidene)methyl)phenoxy)acetic acid] | < 20 µM | > 50 µM |  |  | 
CC1=C(C(=O)OC(C)C)C(c2ccc(Br)cc2)n2c(s/c(=C\c3ccc(OCC(=O)N4CCN(C)CC4)cc3)c2=O)=N1 (centres unmarked) [20S0 (41), isopropyl (Z)-5-(4-bromophenyl)-7-methyl-2-(4-(2-(4-methylpiperazin-1-yl)-2-oxoethoxy)benzylidene)-3-oxo-2,3-dihydro-5H-thiazolo[3,2-a]pyrimidine-6-carboxylate] | 50 to 100 µM |  |  | + + + | 

Source: patent publication US20250129101A1, “Compound, Pharmaceutical Composition Comprising the Same and Method for Treating Cancer Using the Same” (NATIONAL TSING HUA UNIVERSITY, priority 2023, published 2025)
